Experimental data reported in US20010000177A1, “Novel class of thiomorpholino substituted thiazoles” (priority 1999, published 2001).
In brackets after ≈: the same amount, converted by molar mass. Marks after values point to notes of the source that are not given here.

Key:
Type in all cases: cell-based
[1] = tested on: Candida and Cryptococcus strains (organism not given); assay: Broth microdilution antifungal activity, Table II second MIC/MCC column pair; details: second column pair of Table II; for MIC = Minimum inhibitory concentration (50% Inhibition): 48 hrs, 35° C., YNB broth pH 7.0; for MCC = Minimum cytolytic concentration: subculture on SDA plate
Experimental: (§1) Organisms: Three strains of Candida (Candida parpsilosis, Candida tropicalis, Candida albicans-ATCC 36082) as well as Cryptococcus neoformans were used for the initial testing. Active compounds were then tested against fluconazole resistant Candida albicans, Candida krusei, Torulopsis glabrata, and Cryptococcus neoformans along with Sporothrix shenkii and Aspergillus flavus in the secondary round of testing. All clinical strains used in this study were blood culture isolates from the Clinical Microbiology Laboratory of Harbor-UCLA Medical Center, Torrance, Calif. The organisms were maintained on Sabourahd Dextrose Agar slants at 4° C. For experimentation, singlet suspensions of each organism were prepared by growing the yeast overnight at 27° C. on a rotating drum in yeast-nitrogen base broth (YNB) with amino acids (Difco, Detroit, Mich.), pH 7.0 with 0.05M morpholinepropanesulfonic acid (MOPS). The suspension was then centrifuged and washed twice with 0.85% NaCl. This was followed by sonication of the washed cell suspension for 4s (Branson Sonifier, model 350, Danbury, Conn.). The singlet blastospores were counted in a hemocytometer and adjusted to the desired concentration in 0.85% NaCl.
(§2) Antifungal Activity: The antifungal activity of the compounds and Fluconazole against the Candida and Cryptococcus strains were determined using a modification of a broth microdilution technique. Test compounds were diluted in DMSO to a 1.0 mg/ml ratio then diluted to 64 μg/ml in YNB broth, pH 7.0 with MOPS (Fluconazole was used as the control). This was to provide a working solution of each compound. Using a 96-well plate, wells 1 and 3 through 12 were prepared with YNB broth, […] dilutions of the compound solution were made in wells 2 through 11 (concentration ranges were 64 to 0.125 μg/ml). Well one served as a sterility control and blank for the spectrophotometric assays. Well twelve served as a growth control. The microtiter plates were inoculated with 10 ul in each of well 2 through 11 (final inoculum size was 10^4 organisms/ml). Inoculated plates were incubated for 48 hrs., at 35° C. The MIC values were determined spectrophotometrically by measuring the absorbance at 420 nm (Automatic Microplate Reader, DuPont Instruments, Wilmington, Del.) after agitation of the plates for 2 min with a vortex-mixer (Vorte-Genie 2 Mixer, Scientific Industries, Inc., Bolemia, N.Y.). […] With the turbidity assay this was defined as the lowest drug concentration at which turbidity in the well was <50% of the control (IC50) Minimal Cytolytic Concentrations (MCC) were determined by subculturing all wells from the 96-well plate onto a Sabourahd Dextrose Agar (SDA) plate and incubated for 1 to 2 days at 35° C. and the viability was checked.

[2] = tested on: Candida and Cryptococcus strains (organism not given); assay: Broth microdilution antifungal activity, Table II fourth MIC/MCC column pair; details: for MIC = Minimum inhibitory concentration (50% Inhibition) / MCC = Minimum cytolytic concentration: fourth column pair of Table II; for MIC = Minimum inhibitory concentration (50% Inhibition): YNB broth pH 7.0; for MCC = Minimum cytolytic concentration: subculture on SDA plate
Experimental: as §1, with “Active compounds were then tested against fluconazole resistant Candida albicans, Candida krusei, Torulopsis glabrata, and Cryptococcus neoformans along with Sporothrix shenkii and Aspergillus flavus in the secondary round of testing.” left out
as §2

[3] = tested on: Candida and Cryptococcus strains (organism not given); assay: Broth microdilution antifungal activity, Table II first MIC/MCC column pair; details: for MIC = Minimum inhibitory concentration (50% Inhibition) / MCC = Minimum cytolytic concentration: first column pair of Table II; for MIC = Minimum inhibitory concentration (50% Inhibition): YNB broth pH 7.0; for MCC = Minimum cytolytic concentration: subculture on SDA plate
Experimental: as §1, with “Active compounds were then tested against fluconazole resistant Candida albicans, Candida krusei, Torulopsis glabrata, and Cryptococcus neoformans along with Sporothrix shenkii and Aspergillus flavus in the secondary round of testing.” left out
as §2

[4] = tested on: Candida and Cryptococcus strains (organism not given); assay: Broth microdilution antifungal activity, Table II third MIC/MCC column pair; details: for MIC = Minimum inhibitory concentration (50% Inhibition): 48 hrs, 35° C., YNB broth pH 7.0; for MCC = Minimum cytolytic concentration: subculture on SDA plate
Experimental: as §1, §2

| SMILES | MIC = Minimum inhibitory concentration (50% Inhibition) [1] | MIC = Minimum inhibitory concentration (50% Inhibition) ([2]; 48 hrs, 35° C.) | MIC = Minimum inhibitory concentration (50% Inhibition) ([3]; 48 hrs, 35° C.) | MCC = Minimum cytolytic concentration [1] | MIC = Minimum inhibitory concentration (50% Inhibition) [4] | MCC = Minimum cytolytic concentration [4] | MCC = Minimum cytolytic concentration [2] | MCC = Minimum cytolytic concentration [3] | MIC ([2]; Candida, 48 h, pH 7, fourth column pair of Table II, 48 hrs, 35° C., YNB broth pH 7.0, read-out: MIC = Minimum inhibitory concentration (50% Inhibition)) | MIC ([3]; Candida, 48 h, pH 7, first column pair of Table II, 48 hrs, 35° C., YNB broth pH 7.0, read-out: MIC = Minimum inhibitory concentration (50% Inhibition)) |
| --- | --- | --- | --- | --- | --- | --- | --- | --- | --- | --- |
| C[C@@H]1[C@H](O)[C@@H](C)/C=C/C=C/C=C/C=C/C=C/C=C/C=C/[C@H](O[C@@H]2O[C@H](C)[C@@H](O)[C@H](N)[C@@H]2O)C[C@@H]2O[C@](O)(C[C@@H](O)C[C@@H](O)[C@H](O)CC[C@@H](O)C[C@@H](O)CC(=O)O[C@H]1C)C[C@H](O)[C@H]2C(=O)O [Amp-B, amphotericin B, reference compound] | 0.25 µg/mL (≈ 0.271 µM) | <0.03 µg/mL | 0.25 µg/mL (≈ 0.271 µM) | – | – | – | – | – | – | – |
| C=CCN(C)Cc1ccc(-c2csc(-c3ccc(F)cc3)n2)cc1 [Example 1, 2-(4′-fluorophenyl)-4-[4″-(N-methyl-N-allylaminomethyl)phenyl]thiazole] | 4 µg/mL (≈ 11.8 µM) | 4 µg/mL (≈ 11.8 µM) | 4^c μg/ml | 16 µg/mL | 4 µg/mL (≈ 11.8 µM) | 16 µg/mL | 16 µg/mL | 16 µg/mL | – | – |
| CN(C)Cc1ccc(-c2csc(-c3cccc([N+](=O)[O-])c3)n2)cc1 [Example 1aa, 2-(3′-nitrophenyl)-4-[4″-(dimethylaminomethyl)phenyl]-thiazole] | 4 µg/mL (≈ 11.8 µM) | 4 µg/mL (≈ 11.8 µM) | 4 µg/mL (≈ 11.8 µM) | 4 µg/mL | 4 µg/mL (≈ 11.8 µM) | 4 µg/mL | 4 µg/mL | 4 µg/mL | – | – |
| CN(CCO)Cc1ccc(-c2csc(-c3ccc(Cl)cc3)n2)cc1 [Example 1ee, 2-(4′-chlorophenyl)-4-[4″-(N-methyl-N-(2-hydroxyethyl)aminomethyl)-phenyl]thiazole] | 2 µg/mL (≈ 5.57 µM) | 2 µg/mL (≈ 5.57 µM) | 4 µg/mL (≈ 11.1 µM) | 16 µg/mL | 4 µg/mL (≈ 11.1 µM) | 8 µg/mL | 16 µg/mL | 16 µg/mL | – | – |
| C=CCN(C)Cc1ccc(-c2csc(-c3ccc(Cl)cc3)n2)cc1 [Example 1g, 2-(4′-chlorophenyl)-4-[4″-(N-methyl-N-allylaminomethyl)phenyl]thiazole] | 4 µg/mL (≈ 11.3 µM) | 2 µg/mL (≈ 5.64 µM) | 2 µg/mL (≈ 5.64 µM) | 8 µg/mL | 2 µg/mL (≈ 5.64 µM) | 8 µg/mL | 8 µg/mL | 8 µg/mL | – | – |
| C=CCN(C)Cc1ccc(-c2csc(-c3ccc([N+](=O)[O-])cc3)n2)cc1 [Example 1h, 2-(4′-nitrophenyl)-4-[4″-(N-methyl-N-allylaminomethyl)phenyl]thiazole] | 0.25 µg/mL (≈ 0.684 µM) | 0.5 µg/mL (≈ 1.37 µM) | 0.5^c μg/ml | 1 µg/mL | 0.125 µg/mL (≈ 0.342 µM) | 0.5 µg/mL | 2 µg/mL | 2 µg/mL | – | – |
| CN(C)CCNCc1ccc(-c2csc(-c3ccc(Cl)cc3)n2)cc1 [Example 1jj, 2-(4′-chlorophenyl)-4-[4″-(N-(2-dimethylaminoethyl)aminomethyl)phenyl]thiazole] | 4 µg/mL (≈ 10.8 µM) | 8 µg/mL (≈ 21.5 µM) | 8 µg/mL (≈ 21.5 µM) | 4 µg/mL | 4 µg/mL (≈ 10.8 µM) | 4 µg/mL | 8 µg/mL | 8 µg/mL | – | – |
| C=CCN(C)Cc1ccc(-c2csc(-c3cccc([N+](=O)[O-])c3)n2)cc1 [Example 1k, 2-(3′-nitrophenyl)-4-[4″-(N-methyl-N-allylaminomethyl)phenyl]thiazole] | 0.25 µg/mL (≈ 0.684 µM) | 0.25 µg/mL (≈ 0.684 µM) | 0.5 µg/mL (≈ 1.37 µM) | 0.5 µg/mL | 0.25 µg/mL (≈ 0.684 µM) | 0.25 µg/mL | 0.5 µg/mL | 1 µg/mL | – | – |
| C=CCN(C)Cc1ccc(-c2csc(-c3ccc(OC)c([N+](=O)[O-])c3)n2)cc1 [Example 1kk, 2-(4′-methoxy-3′-nitrophenyl)-4-[4″-(N-methyl-N-allylamino-methyl)phenyl]thiazole] | 0.25 µg/mL (≈ 0.632 µM) | 0.5 µg/mL (≈ 1.26 µM) | 1 µg/mL (≈ 2.53 µM) | 1 µg/mL | 1 µg/mL (≈ 2.53 µM) | 2 µg/mL | 2 µg/mL | 2 µg/mL | – | – |
| COc1ccc(-c2nc(-c3ccc(CN(C)CCO)cc3)cs2)cc1[N+](=O)[O-] [Example 1ll, 2-(4′-methoxy-3′-nitrophenyl)-4-[4″-(N-methyl-N-(2-hydroxy-ethyl)amino-methyl)phenyl]thiazole] | 2 µg/mL (≈ 5.01 µM) | 2 µg/mL (≈ 5.01 µM) | 8 µg/mL (≈ 20 µM) | 2 µg/mL | 4 µg/mL (≈ 10 µM) | 4 µg/mL | 8 µg/mL | 8 µg/mL | – | – |
| C=CCNCc1ccc(-c2csc(-c3ccc(F)cc3)n2)cc1 [Example 1n, 2-(4′-fluorophenyl)-4-[4″-(N-allylaminomethyl)phenyl]thiazole] | 4 µg/mL (≈ 12.3 µM) | 8 µg/mL (≈ 24.7 µM) | 8 µg/mL (≈ 24.7 µM) | 8 µg/mL | 8 µg/mL (≈ 24.7 µM) | 16 µg/mL | 8 µg/mL | 16 µg/mL | – | – |
| CN(C/C=C/c1ccccc1)Cc1cccc2ccccc12 [Naftifine, reference compound] | – | – | – | – | – | – | – | – | 4 µg/mL (≈ 13.9 µM) | 32 µg/mL (≈ 111 µM) |
